Measured values as given in paper PMC6222377, “Design, Synthesis, and Evaluation of Amphiphilic Cyclic and Linear Peptides Composed of Hydrophobic and Positively-Charged Amino Acids as Antibacterial Agents” (Molecules : A Journal of Synthetic Chemistry and Natural …, 2018).
In brackets after ≈: the same amount, converted by molar mass. Where a SMILES comes first, the peptide text is derived from it. [ ]: non-standard residue; d: D form. Trp(1-Me) = Cn1cc(C[C@H](N)C(=O)O)c2ccccc21

Tests used:
E. coli (ATCC 25922) = assay: microbe, parasite or virus in culture; type: cell-based, Escherichia coli
Experimental: (§1) To evaluate the antibacterial activity of all the synthesized peptides, the minimum inhibitory concentration (MIC) was determined using the micro broth dilution method (Table 1), as per the Clinical Laboratory Standards Institute (CLSI). The MIC is a quantitative measurement of the minimum concentration of a compound required to inhibit visible bacterial growth. MIC values for all 20 peptides were measured against E. coli (ATCC 25922) and MRSA (Los Angeles County clone (LAC)) (Table 1). These two bacterial strains represent Gram-negative and Gram-positive pathogens. MRSA is one of the most challenging Gram-positive bacteria that leads to a life-threatening infection, while E. coli is a Gram-negative bacteria that has the ability to use gene mutations and multidrug efflux pumps that can result in multidrug resistance.
(§2) Two bacterial strains, methicillin-resistant Staphylococcus aureus (LAC) and Escherichia coli (ATCC 25922) were used for the evaluation of the antibacterial activities of the peptides. […] MRSA and E. coli were inoculated into Mueller Hinton (MH) broth (5 mL) at 37 °C. After shaking in an orbital shaker (175 rpm) overnight, the cultured suspension was diluted using normal saline (5 mL). […] An amount of 40 μL of the McFarland solution was then added to 5980 μL of MH media to afford 1/150 dilution. […] Minimal inhibitory concentrations (MIC) values were obtained using the broth micro dilution assay. In brief, first, the peptides and controls (200 μL) were added to the first column of the 96 well plate. Second, 2-fold serial dilutions of the compound were accomplished by adding media (100 μL) to other wells. After the serial dilution, the bacterial solution (100 μL) was added to all the wells. Finally, the microtiter plates were incubated statically at 37 °C overnight. MIC values were obtained by observing the minimal concentration at which bacterial growth was not visible. All the determinations were carried out in triplicate.

[1] = test system: MRSA (Los Angeles County clone (LAC)); assay: microbe, parasite or virus in culture; type: cell-based, methicillin-resistant Staphylococcus aureus; conditions: for MIC MRSA (LAC): Los Angeles County clone (LAC); for reduction of antibacterial activity compared with [R4W4]: comparison of MIC values with lead compound [R4W4]
Experimental: as §1, §2

| Compound | MIC MRSA (LAC) [1] [µg/mL] | MIC E. coli (ATCC 25922) (E. coli (ATCC 25922)) [µg/mL] | other results |
| --- | --- | --- | --- |
| C[C@@H](O)[C@H]1C(=O)N2C(C(=O)O)=C(S[C@@H]3CN[C@H](C(=O)N(C)C)C3)[C@H](C)[C@H]12 [Meropenem, reference compound] | – | – | MIC (E. coli (ATCC 25922); Escherichia coli, ATCC25922, broth microdilution, Mueller Hinton broth, 37 °C overnight, visible growth, triplicate): 0.25 µg/mL (≈ 0.652 µM) |
| N=C(N)NCCC[C@H](NC(=O)[C@H](CCCNC(=N)N)NC(=O)[C@H](CCCNC(=N)N)NC(=O)[C@@H](N)CCCNC(=N)N)C(=O)N[C@@H](Cc1c[nH]c2ccccc12)C(=O)N[C@@H](Cc1c[nH]c2ccccc12)C(=O)N[C@@H](Cc1c[nH]c2ccccc12)C(=O)N[C@@H](Cc1c[nH]c2ccccc12)C(=O)N[C@@H](Cc1c[nH]c2ccccc12)C(=O)O [R4W5 (18)5] | 16 (≈ 10.2 µM) | 32 (≈ 20.3 µM) | – |
| CN[C@H](CC(C)C)C(=O)N[C@H]1C(=O)N[C@@H](CC(N)=O)C(=O)N[C@H]2C(=O)N[C@H]3C(=O)N[C@H](C(=O)N[C@H](C(=O)O)c4cc(O)cc(O)c4-c4cc3ccc4O)[C@H](O)c3ccc(c(Cl)c3)Oc3cc2cc(c3O[C@@H]2O[C@H](CO)[C@@H](O)[C@H](O)[C@H]2O[C@H]2C[C@](C)(N)[C@H](O)[C@H](C)O2)Oc2ccc(cc2Cl)[C@H]1O [Vancomycin, reference compound] | – | – | MIC ([1]; Staphylococcus aureus, MRSA, read-out: MIC MRSA (LAC)): 1 µg/mL (≈ 0.69 µM) |
| C[C@@H]1NC(=O)[C@H](C)NC(=O)[C@H](C)NC(=O)[C@H](CCCNC(=N)N)NC(=O)[C@H](CCCNC(=N)N)NC(=O)[C@H](CCCNC(=N)N)NC(=O)[C@H](CCCNC(=N)N)NC(=O)[C@H](C)NC1=O [[A4R4] (10)] (cyclo(AAAARRRR)) | >128 | >128 | – |
| N=C(N)NCCC[C@H]1NC(=O)[C@H](Cc2c[nH]c3ccccc23)NC(=O)[C@H](Cc2c[nH]c3ccccc23)NC(=O)[C@H](Cc2c[nH]c3ccccc23)NC(=O)[C@H](Cc2c[nH]c3ccccc23)NC(=O)[C@@H](CCCNC(=N)N)NC(=O)[C@@H](CCCNC(=N)N)NC(=O)[C@@H](CCCNC(=N)N)NC1=O [[DR4W4] (14)] (cyclo([dR][dR][dR][dR]WWWW)) | 8 (≈ 5.84 µM) | 16 (≈ 11.7 µM) | reduction of antibacterial activity compared with [R4W4] [1]: two-fold |
| O=C(O)CC[C@@H]1NC(=O)[C@H](CCC(=O)O)NC(=O)[C@H](CCC(=O)O)NC(=O)[C@H](Cc2c[nH]c3ccccc23)NC(=O)[C@H](Cc2c[nH]c3ccccc23)NC(=O)[C@H](Cc2c[nH]c3ccccc23)NC(=O)[C@H](Cc2c[nH]c3ccccc23)NC(=O)[C@H](CCC(=O)O)NC1=O [[E4W4] (16)] (cyclo(EEEEWWWW)) | >128 | >128 | antibacterial activity (in words) ([1]; text summary of MIC results): abolished the activity completely |
| N=C(N)NCCC[C@@H]1NC(=O)[C@H](CCCNC(=N)N)NC(=O)[C@H](CCCNC(=N)N)NC(=O)[C@H](Cc2ccccc2)NC(=O)[C@H](Cc2ccccc2)NC(=O)[C@H](Cc2ccccc2)NC(=O)[C@H](Cc2ccccc2)NC(=O)[C@H](CCCNC(=N)N)NC1=O [[F4R4] (9)] (cyclo(RRRRFFFF)) | >128 | >128 | – |
| CC[C@H](C)[C@@H]1NC(=O)[C@H](CCCNC(=N)N)NC(=O)[C@H](CCCNC(=N)N)NC(=O)[C@H](CCCNC(=N)N)NC(=O)[C@H](CCCNC(=N)N)NC(=O)[C@H]([C@@H](C)CC)NC(=O)[C@H]([C@@H](C)CC)NC(=O)[C@H]([C@@H](C)CC)NC1=O [[I4R4] (11)] (cyclo(IIIIRRRR)) | >128 | >128 | – |
| NCCCC[C@@H]1NC(=O)[C@H](CCCCN)NC(=O)[C@H](CCCCN)NC(=O)[C@H](Cc2c[nH]c3ccccc23)NC(=O)[C@H](Cc2c[nH]c3ccccc23)NC(=O)[C@H](Cc2c[nH]c3ccccc23)NC(=O)[C@H](Cc2c[nH]c3ccccc23)NC(=O)[C@H](CCCCN)NC1=O [[K4W4] (15)] (cyclo(KKKKWWWW)) | 8 (≈ 6.36 µM) | 16 (≈ 12.7 µM) | reduction of antibacterial activity compared with [R4W4] [1]: two-fold |
| CC(C)C[C@@H]1NC(=O)[C@H](CCCNC(=N)N)NC(=O)[C@H](CCCNC(=N)N)NC(=O)[C@H](CCCNC(=N)N)NC(=O)[C@H](CCCNC(=N)N)NC(=O)[C@H](CC(C)C)NC(=O)[C@H](CC(C)C)NC(=O)[C@H](CC(C)C)NC1=O [[L4R4] (12)] (cyclo(LLLLRRRR)) | >128 | >128 | – |
| N=C(N)NCCC[C@@H]1NC(=O)[C@H](CCCNC(=N)N)NC(=O)[C@H](CCCNC(=N)N)NC(=O)[C@H](CCCNC(=N)N)NC(=O)[C@H](Cc2c[nH]c3ccccc23)NC(=O)[C@H](Cc2c[nH]c3ccccc23)NC(=O)[C@H](Cc2c[nH]c3ccccc23)NC(=O)[C@H](Cc2c[nH]c3ccccc23)NC(=O)[C@H](Cc2c[nH]c3ccccc23)NC(=O)[C@H](CCCNC(=N)N)NC(=O)[C@H](CCCNC(=N)N)NC(=O)[C@H](CCCNC(=N)N)NC1=O [[R7W5] (17)] (cyclo(RRRRRRRWWWWW)) | 32 (≈ 15.8 µM) | 64 (≈ 31.6 µM) | – |
| N=C(N)NCCC[C@@H]1NC(=O)[C@H](CCCNC(=N)N)NC(=O)[C@H](CCCNC(=N)N)NC(=O)[C@H](CCCNC(=N)N)NC(=O)[C@H](Cc2c[nH]c3ccccc23)NC(=O)[C@H](Cc2c[nH]c3ccccc23)NC(=O)[C@H](Cc2c[nH]c3ccccc23)NC(=O)[C@H](Cc2c[nH]c3ccccc23)NC(=O)[C@H](Cc2c[nH]c3ccccc23)NC(=O)[C@H](Cc2c[nH]c3ccccc23)NC(=O)[C@H](CCCNC(=N)N)NC(=O)[C@H](CCCNC(=N)N)NC(=O)[C@H](CCCNC(=N)N)NC1=O [[R7W6] (19)] (cyclo(RRRRRRRWWWWWW)) | 16 (≈ 7.24 µM) | 64 (≈ 29 µM) | – |
| N=C(N)NCCC[C@@H]1NC(=O)[C@H](CCCNC(=N)N)NC(=O)[C@H](CCCNC(=N)N)NC(=O)[C@H](CCCNC(=N)N)NC(=O)[C@H](Cc2c[nH]c3ccccc23)NC(=O)[C@H](Cc2c[nH]c3ccccc23)NC(=O)[C@H](Cc2c[nH]c3ccccc23)NC(=O)[C@H](Cc2c[nH]c3ccccc23)NC(=O)[C@H](Cc2c[nH]c3ccccc23)NC(=O)[C@H](Cc2c[nH]c3ccccc23)NC(=O)[C@H](Cc2c[nH]c3ccccc23)NC(=O)[C@H](CCCNC(=N)N)NC(=O)[C@H](CCCNC(=N)N)NC(=O)[C@H](CCCNC(=N)N)NC1=O [[R7W7] (20)] (cyclo(RRRRRRRWWWWWWW)) | 8 (≈ 3.34 µM) | 32 (≈ 13.4 µM) | – |
| Cn1cc(C[C@@H]2NC(=O)[C@H](CCCNC(=N)N)NC(=O)[C@H](CCCNC(=N)N)NC(=O)[C@H](CCCNC(=N)N)NC(=O)[C@H](CCCNC(=N)N)NC(=O)[C@H](Cc3cn(C)c4ccccc34)NC(=O)[C@H](Cc3cn(C)c4ccccc34)NC(=O)[C@H](Cc3cn(C)c4ccccc34)NC2=O)c2ccccc21 [[W(Me)4R4] (13)] (cyclo([Trp(1-Me)][Trp(1-Me)][Trp(1-Me)][Trp(1-Me)]RRRR)) | 8 (≈ 5.61 µM) | 16 (≈ 11.2 µM) | – |
| N=C(N)NCCC[C@@H]1NC(=O)[C@H](CCCNC(=N)N)NC(=O)[C@H](CCCNC(=N)N)NC(=O)[C@H](Cc2ccc(O)cc2)NC(=O)[C@H](Cc2ccc(O)cc2)NC(=O)[C@H](Cc2ccc(O)cc2)NC(=O)[C@H](Cc2ccc(O)cc2)NC(=O)[C@H](CCCNC(=N)N)NC1=O [[Y4R4] (8)] (cyclo(YYYYRRRR)) | >128 | >128 | – |
| H-AAAARRRR-OH [A4R4 (2)] | >128 | >128 | – |
| H-FFFFRRRR-OH [F4R4 (3)] | >128 | >128 | – |
| H-IIIIRRRR-OH [I4R4 (5)] | >128 | >128 | – |
| H-LLLLRRRR-OH [L4R4 (4)] | >128 | >128 | – |
| H-RRRRWWWW-OH [R4W4 (1)] | 32 | 64 | – |
| H-YYYYRRRR-OH [Y4R4 (6)] | >128 | >128 | – |
